# Results reported in PubChem BioAssay (NCI).
#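 Tested at 5 concentrations; 48 h exposure; 96-well plates; endpoints linearly interpolated, else capped at highest concentration. The concentration for 50% growth inhibition is given as GI50. TGI denotes the concentration required for complete inhibition of growth.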
# Columns and labels:
# Assay in all cases: DTP human tumour cell line panel, 48 h
# [1] = system: NCI-H23 lung
# [2] = system: SF-268 CNS
# [3] = system: RPMI-8226 leukemia
# [4] = system: MDA-MB-231 breast
# [5] = system: OVCAR-3 ovarian
# [6] = system: HCT-15 colon
# [7] = system: SW-620 colon
# [8] = system: A549 NSCLC
# [9] = system: PC-3 prostate
# [10] = system: A498 renal
# [11] = system: HL-60(TB) leukemia
# [12] = system: HT29 colon
# [13] = system: IGROV1 ovarian
# [14] = system: ACHN renal
# [15] = system: SK-MEL-2 melanoma
# [16] = system: HOP-62 NSCLC
# [17] = system: UACC-257 melanoma
# [18] = system: M14 melanoma
# [19] = system: MCF7 breast
# [20] = system: LOX IMVI melanoma
# [21] = system: NCI-H460 lung
# [22] = system: SK-MEL-28 melanoma
# [23] = system: SNB-19 CNS
# [24] = system: MALME-3M melanoma
# [25] = system: SF-295 CNS
# [26] = system: BT-549 breast
# [27] = system: CCRF-CEM leukemia
# [28] = system: CAKI-1 renal
# [29] = system: 786-0 renal
# [30] = system: DU-145 prostate
# [31] = system: SK-OV-3 ovarian
# [32] = system: UO-31 renal
# [33] = system: SN12C renal
# [34] = system: T-47D breast
# [35] = system: OVCAR-8 ovarian
# [36] = system: HCC-2998 colon
# [37] = system: HCT-116 colon
# [38] = system: SR leukemia
# [39] = system: SNB-75 CNS
# [40] = system: OVCAR-5 ovarian
# [41] = system: NCI/ADR-RES ovarian
# [42] = system: COLO 205 colon
# [43] = system: SF-539 CNS
# [44] = system: EKVX NSCLC
# [45] = system: RXF 393 renal
# [46] = system: UACC-62 melanoma
# [47] = system: HOP-92 NSCLC
# [48] = system: MOLT-4 leukemia
# [49] = system: OVCAR-4 ovarian
# [50] = system: NCI-H522 lung
# [51] = system: MDA-MB-435
# [52] = system: K-562 leukemia
# [53] = system: HS 578T breast
# [54] = system: TK-10 renal
# [55] = system: U251 CNS
# [56] = system: SK-MEL-5 melanoma
# [57] = system: KM12 colon
compound,measurement,setting,value
O=c1c2ccccc2n(C[C@H]2CO2)c2ccccc12,GI50,[1],1.42 µM
same,TGI,[1],4.52 µM
same,GI50,[2],1.62 µM
same,TGI,[2],5.97 µM
same,GI50,[3],1.94 µM
same,TGI,[3],6.55 µM
same,GI50,[4],2.07 µM
same,TGI,[4],5.24 µM
same,GI50,[5],2.31 µM
same,TGI,[5],7.19 µM
same,GI50,[6],1.68 µM
same,TGI,[6],5.27 µM
same,GI50,[7],0.828 µM
same,TGI,[7],12.7 µM
same,GI50,[8],2.45 µM
same,TGI,[8],7.28 µM
same,GI50,[9],2.04 µM
same,TGI,[9],8.34 µM
same,GI50,[10],2.62 µM
same,TGI,[10],6.57 µM
same,GI50,[11],1.28 µM
same,TGI,[11],3.29 µM
same,GI50,[12],2.24 µM
same,TGI,[12],7.91 µM
same,GI50,[13],1.53 µM
same,TGI,[13],5.6 µM
same,GI50,[14],0.886 µM
same,TGI,[14],3.9 µM
same,GI50,[15],1.96 µM
same,TGI,[15],3.83 µM
same,GI50,[16],2.13 µM
same,TGI,[16],5.84 µM
same,GI50,[17],2.1 µM
same,TGI,[17],4.46 µM
same,GI50,[18],1.67 µM
same,TGI,[18],3.9 µM
same,GI50,[19],0.39 µM
same,TGI,[19],2.98 µM
same,GI50,[20],1.51 µM
same,TGI,[20],3.15 µM
same,GI50,[21],1.7 µM
same,TGI,[21],4.43 µM
same,GI50,[22],2.4 µM
same,TGI,[22],5.76 µM
same,GI50,[23],2.3 µM
same,TGI,[23],7.79 µM
same,GI50,[24],1.65 µM
same,TGI,[24],3.19 µM
same,GI50,[25],2.91 µM
same,TGI,[25],9.44 µM
same,GI50,[26],1.91 µM
same,TGI,[26],6.08 µM
same,GI50,[27],0.771 µM
same,TGI,[27],21.7 µM
same,GI50,[28],1.83 µM
same,TGI,[28],8.26 µM
same,GI50,[29],2.75 µM
same,TGI,[29],8.17 µM
same,GI50,[30],1.35 µM
same,TGI,[30],5.85 µM
same,GI50,[31],2.64 µM
same,TGI,[31],7.33 µM
same,GI50,[32],1.72 µM
same,TGI,[32],4.96 µM
same,GI50,[33],1.8 µM
same,TGI,[33],7.05 µM
same,GI50,[34],2.53 µM
same,TGI,[34],8.38 µM
same,GI50,[35],1.26 µM
same,TGI,[35],5.35 µM
same,GI50,[36],1.51 µM
same,TGI,[36],3.44 µM
same,GI50,[37],1.12 µM
same,TGI,[37],8.78 µM
same,GI50,[38],0.302 µM
same,TGI,[38],4.37 µM
same,GI50,[39],1.52 µM
same,TGI,[39],3.46 µM
same,GI50,[40],2.44 µM
same,TGI,[40],6.41 µM
same,GI50,[41],1.7 µM
same,TGI,[41],6.25 µM
same,GI50,[42],1.49 µM
same,TGI,[42],4.15 µM
same,GI50,[43],1.77 µM
same,TGI,[43],3.68 µM
same,GI50,[44],2.56 µM
same,TGI,[44],6.44 µM
same,GI50,[45],1.39 µM
same,TGI,[45],2.82 µM
same,GI50,[46],1.59 µM
same,TGI,[46],3.11 µM
same,GI50,[47],2.03 µM
same,TGI,[47],5.27 µM
same,GI50,[48],0.29 µM
same,TGI,[48],2.35 µM
same,GI50,[49],2.4 µM
same,TGI,[49],7.89 µM
same,GI50,[50],1.61 µM
same,TGI,[50],3.74 µM
same,GI50,[51],1.61 µM
same,TGI,[51],3.24 µM
same,GI50,[52],2.2 µM
same,TGI,[52],> 100 µM
same,GI50,[53],2.05 µM
same,TGI,[53],5.89 µM
same,GI50,[54],2.34 µM
same,TGI,[54],6.77 µM
same,GI50,[55],1.82 µM
same,TGI,[55],7.3 µM
same,GI50,[56],1.52 µM
same,TGI,[56],2.9 µM
same,GI50,[57],2.19 µM
same,TGI,[57],7.02 µM
